Measured values: PubChem BioAssay AID1963832 (Molecular Pharmacology Branch, DTP, NCI, 2024)

Test system: 885724-159-R-J1-PDC complex spheroid viability
Assay: Anticancer human tumor 885724-159-R-J1-PDC patient-derived pancreatic adenocarcinoma cell line growth inhibition [POLQ]
Conditions: for IC50: curve of first compound; for viability, T/C: stronger effect = lower value; active means viability on the fitted dose curve at most 10% of control; inactive means the rest
Procedure, shortened: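 Growth inhibition in 3D: complex spheroids (tumor PDC, HUVEC, MSC) treated with POLQ inhibitor combinations; where Cmax unknown, highest tested concentration 10 microM, except SN-38 at 1 microM.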

[1] = second compound 0.0316 µM, first compound 0.0316 µM
[2] = second compound 0.0316 µM, first compound 0.1 µM
[3] = second compound 0.0316 µM, first compound 0.316 µM
[4] = second compound 0.0316 µM, first compound 1 µM
[5] = second compound 0.0316 µM, first compound 3.16 µM
[6] = second compound 0.0316 µM, first compound 10 µM
[7] = second compound 0.1 µM, first compound 0.0316 µM
[8] = second compound 0.1 µM, first compound 0.1 µM
[9] = second compound 0.1 µM, first compound 0.316 µM
[10] = second compound 0.1 µM, first compound 1 µM
[11] = second compound 0.1 µM, first compound 3.16 µM
[12] = second compound 0.1 µM, first compound 10 µM
[13] = second compound 0.316 µM, first compound 0.0316 µM
[14] = second compound 0.316 µM, first compound 0.1 µM
[15] = second compound 0.316 µM, first compound 0.316 µM
[16] = second compound 0.316 µM, first compound 1 µM
[17] = second compound 0.316 µM, first compound 3.16 µM
[18] = second compound 0.316 µM, first compound 10 µM
[19] = second compound 1 µM, first compound 0.0316 µM
[20] = second compound 1 µM, first compound 0.1 µM
[21] = second compound 1 µM, first compound 0.316 µM
[22] = second compound 1 µM, first compound 1 µM
[23] = second compound 1 µM, first compound 3.16 µM
[24] = second compound 1 µM, first compound 10 µM
[25] = second compound 3.16 µM, first compound 0.0316 µM
[26] = second compound 3.16 µM, first compound 0.1 µM
[27] = second compound 3.16 µM, first compound 0.316 µM
[28] = second compound 3.16 µM, first compound 1 µM
[29] = second compound 3.16 µM, first compound 3.16 µM
[30] = second compound 3.16 µM, first compound 10 µM
[31] = second compound 10 µM, first compound 0.0316 µM
[32] = second compound 10 µM, first compound 0.1 µM
[33] = second compound 10 µM, first compound 0.316 µM
[34] = second compound 10 µM, first compound 1 µM
[35] = second compound 10 µM, first compound 3.16 µM
[36] = second compound 10 µM, first compound 10 µM
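Further: spheroids exposed to compounds for 7 days.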

COc1ccc([C@@H](O)c2cc(-c3ncnc4cc(N5CCOCC5)ccc34)c(F)cc2Cl)nn1 + COC1C(OC(N)=O)C(O)C(Oc2ccc3c(O)c(NC(=O)c4ccc(O)c(CC=C(C)C)c4)c(=O)oc3c2C)OC1(C)C
3.15 µM: IC50 (second compound 3.16 µM)
3.75 µM: IC50 (second compound 10 µM)
4.09 µM: IC50 (second compound 0.1 µM)
3.45 µM: IC50 (second compound 0.0316 µM)
4.05 µM: IC50 (second compound 0.316 µM)
4.77 µM: IC50 (second compound 1 µM)
inactive: viability, T/C [1] 95.4% | viability, T/C [2] 85.4% | viability, T/C [3] 76.3% | viability, T/C [4] 65.5% | viability, T/C [5] 53.4% | viability, T/C [6] 33.4% | viability, T/C [7] 104% | viability, T/C [8] 104% | viability, T/C [9] 81.9% | viability, T/C [10] 71.2% | viability, T/C [11] 56.7% | viability, T/C [12] 33.8% | viability, T/C [13] 100% | viability, T/C [14] 93.3% | viability, T/C [15] 86.6% | viability, T/C [16] 73.7% | viability, T/C [17] 54.2% | viability, T/C [18] 32.8% | viability, T/C [19] 94.2% | viability, T/C [20] 81.4% | viability, T/C [21] 90% | viability, T/C [22] 66.8% | viability, T/C [23] 61.9% | viability, T/C [24] 34.3% | viability, T/C [25] 89.9% | viability, T/C [26] 81.3% | viability, T/C [27] 97.2% | viability, T/C [28] 68.4% | viability, T/C [29] 52.5% | viability, T/C [30] 31.8% | viability, T/C [31] 108% | viability, T/C [32] 86.9% | viability, T/C [33] 87.5% | viability, T/C [34] 69.1% | viability, T/C [35] 55.5% | viability, T/C [36] 31.5%

O=C(Nc1ccc(O)c(NS(=O)(=O)c2ccc(F)cc2)c1)c1ccc(-c2ccccc2)cc1 + COC1C(OC(N)=O)C(O)C(Oc2ccc3c(O)c(NC(=O)c4ccc(O)c(CC=C(C)C)c4)c(=O)oc3c2C)OC1(C)C
> 10 µM: IC50 (second compound 0.0316 µM) | IC50 (second compound 0.1 µM) | IC50 (second compound 0.316 µM) | IC50 (second compound 1 µM) | IC50 (second compound 3.16 µM) | IC50 (second compound 10 µM)
inactive: viability, T/C [1] 90.9% | viability, T/C [2] 91.9% | viability, T/C [3] 92.7% | viability, T/C [4] 102% | viability, T/C [5] 98.6% | viability, T/C [6] 72.9% | viability, T/C [7] 104% | viability, T/C [8] 96.7% | viability, T/C [9] 98.1% | viability, T/C [10] 104% | viability, T/C [11] 109% | viability, T/C [12] 72.7% | viability, T/C [13] 105% | viability, T/C [14] 95.6% | viability, T/C [15] 90% | viability, T/C [16] 107% | viability, T/C [17] 106% | viability, T/C [18] 87.3% | viability, T/C [19] 107% | viability, T/C [20] 96% | viability, T/C [21] 95% | viability, T/C [22] 100% | viability, T/C [23] 102% | viability, T/C [24] 71.4% | viability, T/C [25] 96.6% | viability, T/C [26] 92% | viability, T/C [27] 95.1% | viability, T/C [28] 94.1% | viability, T/C [29] 101% | viability, T/C [30] 84.1% | viability, T/C [31] 94.8% | viability, T/C [32] 97.3% | viability, T/C [33] 94.6% | viability, T/C [34] 97.1% | viability, T/C [35] 108% | viability, T/C [36] 75.8%
